According to patent US10988459B2 (priority 2015, dated 2021):

These compounds were tested against human RIP1 kinase domain (2-375) (Homo sapiens (Human), UniProt Q13546) (assay: biochemical). Settings: Table 1; apparent Ki (Morrison tight-binding fit); 50 nM RIP1 kinase domain, 50 uM ATP, 2 hours incubation; read-out: RIP1 Ki.
Sequence of human RIP1 kinase domain (2-375) (Q13546 2-375): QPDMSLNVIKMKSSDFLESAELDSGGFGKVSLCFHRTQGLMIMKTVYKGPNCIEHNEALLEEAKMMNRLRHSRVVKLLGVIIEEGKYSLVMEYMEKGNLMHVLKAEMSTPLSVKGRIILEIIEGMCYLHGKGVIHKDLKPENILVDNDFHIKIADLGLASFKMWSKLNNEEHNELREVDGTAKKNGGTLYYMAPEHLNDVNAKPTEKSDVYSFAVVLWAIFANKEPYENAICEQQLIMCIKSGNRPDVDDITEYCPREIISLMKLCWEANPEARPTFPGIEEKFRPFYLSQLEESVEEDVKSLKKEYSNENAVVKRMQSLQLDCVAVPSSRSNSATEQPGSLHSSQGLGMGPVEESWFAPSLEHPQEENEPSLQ
Type: biochemical
Method in brief: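 Ki^app comes from Morrison tight-binding fits of fractional activity versus compound concentration. Activity was read as ADP production, via tracer displacement lowering fluorescence polarization (633 nm laser). Conditions: 2 h, 50 nM insect-cell-expressed enzyme, 50 uM ATP, 30 mM MgCl2, 1 mM DTT, 0.5% DMSO, pH 7.5 Hepes.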
For `CN1C(=O)[C@@H](NC(=O)c2n[nH]c3c2CC(n2cccn2)CC3)COc2ccccc21` (stereo partly drawn) [Example 20, N—((S)-5-methyl-4-oxo-2,3,4,5-tetrahydrobenzo[b][1,4]oxazepin-3-yl)-5-(1H-pyrazol-1-yl)-4,5,6,7-tetrahydro-1H-indazole-3-carboxamide], the Ki was 745 nM.
In the case of `CC1(C)CCc2c(C(=O)N[C@H]3CCc4cc(Cl)ccc4NC3=O)n[nH]c2C1` [Example 53, (S)-N-(7-chloro-2-oxo-2,3,4,5-tetrahydro-1H-benzo[b]azepin-3-yl)-6,6-dimethyl-4,5,6,7-tetrahydro-1H-indazole-3-carboxamide], the Ki is reported as 4500 nM.

Same assay, conditions: Table 3; apparent Ki (Morrison tight-binding fit); 50 nM RIP1 kinase domain, 50 uM ATP, 2 hours incubation; read-out: Ki
`CN1C(=O)[C@@H](NC(=O)c2ncn(Cc3ccccc3)n2)CCn2nccc21` [Example 334, (S)-1-benzyl-N-(4-methyl-5-oxo-5,6,7,8-tetrahydro-4H-pyrazolo[1,5-a][1,3]diazepin-6-yl)-1H-1,2,4-triazole-3-carboxamide] was tested, and the Ki was 27 nM.

Same assay, conditions: Table 5; apparent Ki (Morrison tight-binding fit); 50 nM RIP1 kinase domain, 50 uM ATP, 2 hours incubation; read-out: Ki
`CN1C(=O)[C@@H](NC(=O)c2nc3n(n2)CCNC3C(F)(F)F)COc2ccccc21` (stereo partly drawn) [Example 731, N—((S)-5-methyl-4-oxo-2,3,4,5-tetrahydrobenzo[b][1,4]oxazepin-3-yl)-8-(trifluoromethyl)-5,6,7,8-tetrahydro-[1,2,4]triazolo[1,5-a]pyrazine-2-carboxamide] gave a Ki of 300 nM.
In the case of `CN1C(=O)[C@@H](NC(=O)c2ncn(Cc3ccccc3)n2)CCn2nc(CN3CC(F)C3)cc21` [Example 782, (S)-1-benzyl-N-(2-((3-fluoroazetidin-1-yl)methyl)-4-methyl-5-oxo-5,6,7,8-tetrahydro-4H-pyrazolo[1,5-a][1,3]diazepin-6-yl)-1H-1,2,4-triazole-3-carboxamide], the Ki is reported as 142 nM.
`COCCOCCc1cc2n(n1)CC[C@H](NC(=O)c1ncn(Cc3ccccc3)n1)C(=O)N2C` [Example 755, 1-benzyl-N-[(6S)-2-[2-(2-methoxyethoxy)ethyl]-4-methyl-5-oxo-7,8-dihydro-6H-pyrazolo[1,5-a][1,3]diazepin-6-yl]-1,2,4-triazole-3-carboxamide] showed a Ki of 124 nM.

Same assay, conditions: human RIP1 kinase domain (2-375), 50 uM ATP, 2 hours incubation, Transcreener ADP assay; read-out: RIP1 Ki
Work on `CN1C(=O)C(NC(=O)c2cn(Cc3ccccc3)nn2)CCn2ccnc21` (stereo not drawn) [Example 196, 1-benzyl-N-(9-methyl-8-oxo-6,7,8,9-tetrahydro-5H-imidazo[1,2-a][1,3]diazepin-7-yl)-1H-1,2,3-triazole-4-carboxamide] yielded a Ki of 341 nM.
Compound `CN1C(=O)C(NC(=O)c2ncn(Cc3ccccc3)n2)CCn2nc3ccccc3c21` (stereo not drawn) [Example 110, 1-benzyl-N-(1-methyl-2-oxo-2,3,4,5-tetrahydro-1H-[1,3]diazepino[1,2-b]indazol-3-yl)-1H-1,2,4-triazole-3-carboxamide] has a Ki of 65.2 nM.
`CN1C(=O)[C@@H](NC(=O)c2cc3c(cn2)CO[C@@]32CCOC2)COc2ccccc21` (single isomer, unassigned) [Example 159] was tested, and the Ki was 327 nM.
For `CN1C(=O)[C@@H](NC(=O)c2n[nH]c3c2CC2(CC3)CC2)COc2ccccc21` [Example 174, (S)—N-(5-methyl-4-oxo-2,3,4,5-tetrahydrobenzo[b][1,4]oxazepin-3-yl)-1′,4′,6′,7′-tetrahydrospiro[cyclopropane-1,5′-indazole]-3′-carboxamide], the Ki was 166 nM.
In the case of `CC(C)n1ncc2c1OC[C@H](NC(=O)c1nnc(Cc3ccccc3)[nH]1)C(=O)N2` [Example 197, (S)-5-benzyl-N-(1-isopropyl-5-oxo-4,5,6,7-tetrahydro-1H-pyrazolo [3,4-b][1,4]oxazepin-6-yl)-4H-1,2,4-triazole-3-carboxamide], the Ki is reported as 5100 nM.

Same assay, conditions: human RIP1 kinase domain (2-375), Transcreener ADP assay, 50 uM ATP, 2 hours incubation; read-out: RIP1 Ki
Work on `CCC1(C)OCc2cnc(C(=O)N[C@H]3COc4ccccc4N(C)C3=O)nc21` (stereo partly drawn) [Example 310, 7-ethyl-7-methyl-N—((S)-5-methyl-4-oxo-2,3,4,5-tetrahydrobenzo[b][1,4]oxazepin-3-yl)-5,7-dihydrofuro[3,4-d]pyrimidine-2-carboxamide] yielded a Ki of 37.2 nM.
`CN1C(=O)C(NC(=O)c2ncn(Cc3ccccc3)n2)CCn2nc(C3CCOCC3)cc21` (stereo not drawn) [Example 234, 1-benzyl-N-(4-methyl-5-oxo-2-(tetrahydro-2H-pyran-4-yl)-5,6,7,8-tetrahydro-4H-pyrazolo[1,5-a][1,3]diazepin-6-yl)-1H-1,2,4-triazole-3-carboxamide] was tested, and the Ki was 199 nM.
For `Cc1cc2n(n1)CC[C@H](NC(=O)c1cc3c(cn1)COC3(C)CC(F)(F)F)C(=O)N2C` (stereo partly drawn) [Example 266, N—((S)-2,4-dimethyl-5-oxo-5,6,7,8-tetrahydro-4H-pyrazolo[1,5-a][1,3]diazepin-6-yl)-1-m ethyl-1-(2,2,2-trifluoroethyl)-1,3-dihydrofuro[3,4-c]pyridine-6-carboxamide], the Ki was 1300 nM.
Work on `CC[C@@]1(C)OCc2cnc(C(=O)N[C@H]3COc4cc(F)cc(F)c4NC3=O)cc21` [Example 244, (R)—N—((S)-6,8-difluoro-4-oxo-2,3,4,5-tetrahydrobenzo[b][1,4]oxazepin-3-yl)-1-ethyl-1-methyl-1,3-dihydrofuro[3,4-c]pyridine-6-carboxamide] yielded a Ki of 36.8 nM.

Same assay, conditions: tight-binding apparent inhibition constant; human RIP1 kinase domain (2-375) 50 nM, 50 uM ATP, 2 hours; read-out: Ki
`Cc1cn2c(n1)N(C)C(=O)[C@H](NC(=O)c1ncn(Cc3c(F)cccc3F)n1)CC2` [Example 660, 1-[(2,6-difluorophenyl)methyl]-N-(7R)-2,9-dimethyl-8-oxo-6,7-dihydro-5H-imidazo[1,2-a][1,3]diazepin-7-yl-1,2,4-triazole-3-carboxamide] was tested, and the Ki was 62 nM.
Compound `Cc1cc2n(n1)CC[C@H](NC(=O)c1ncc3cnn(-c4c(F)cccc4F)c3n1)C(=O)N2C` [Example 609, 1-(2,6-difluorophenyl)-N-[(6S)-2,4-dimethyl-5-oxo-7,8-dihydro-6H-pyrazolo[1,5-a][1,3]diazepin-6-yl]pyrazolo[3,4-d]pyrimidine-6-carboxamide] has a Ki of 71 nM.
`CC(O)c1cc2n(n1)CC[C@H](NC(=O)c1ncn(Cc3ccccc3)n1)C(=O)N2C` (single isomer, unassigned) [Example 367] was tested, and the Ki was 161 nM.
Work on `Cc1cc2n(n1)CC[C@H](NC(=O)c1ncn(Cc3ccccc3Cl)n1)C(=O)N2C` [Example 520, 1-[(2-chlorophenyl)methyl]-N-(6S)-2,4-dimethyl-5-oxo-7,8-dihydro-6H-pyrazolo[1,5-a][1,3]diazepin-6-yl-1,2,4-triazole-3-carboxamide] yielded a Ki of 6 nM.
Work on `CN1C(=O)[C@@H](NC(=O)c2nc3n(n2)[C@H](c2ccccc2F)CC3)CCn2nccc21` [Example 466, (S)-5-(2-fluorophenyl)-N—((S)-4-methyl-5-oxo-5,6,7,8-tetrahydro-4H-pyrazolo[1,5-a][1,3]diazepin-6-yl)-6,7-dihydro-5H-pyrrolo[1,2-b][1,2,4]triazole-2-carboxamide] yielded a Ki of 803 nM.
With `CN1C(=O)[C@@H](NC(=O)c2ncn(CC3CCCCO3)n2)CCn2nc(C3CC3)cc21` (stereo partly drawn) [Example 477] the Ki was 290 nM.
`CC(C)[C@@H]1CCCc2nc(C(=O)N[C@H]3COc4ccccc4N(C)C3=O)nn21` (racemic) [Example 414, (S)-5-isopropyl-N—((S)-5-methyl-4-oxo-2,3,4,5-tetrahydrobenzo[b][1,4]oxazepin-3-yl)-5,6,7,8-tetrahydro-[1,2,4]triazolo[1,5-a]pyridine-2-carboxamide] gave a Ki of 13.6 nM.
With `CN1C(=O)[C@@H](NC(=O)c2ncc3cnn(C4CCCC4)c3n2)COc2ccccc21` [Example 485, 1-cyclopentyl-N-[(3S)-5-methyl-4-oxo-2,3-dihydro-1,5-benzoxazepin-3-yl]pyrazolo[3,4-d]pyrimidine-6-carboxamide] the Ki was 4.2 nM.
With `Cn1cc(-c2cccc3nc(C(=O)N[C@H]4COc5cc(F)cc(F)c5NC4=O)nn23)cn1` [Example 421, (S)—N-(6,8-difluoro-4-oxo-2,3,4,5-tetrahydrobenzo[b][1,4]oxazepin-3-yl)-5-(1-methyl-1H-pyrazol-4-yl)-[1,2,4]triazolo[1,5-a]pyridine-2-carboxamide] the Ki was 15.9 nM.
`CN1C(=O)[C@@H](NC(=O)c2ncn(Cc3ccccc3)n2)CCn2nc(CN3CCOCC3)cc21` (single isomer, unassigned) [Example 449] showed a Ki of 115 nM.
In the case of `Cc1cc2n(n1)CC[C@H](NC(=O)c1ncn(Cc3ncccc3F)n1)C(=O)N2C` [Example 654, 1-[(3-fluoro-2-pyridyl)methyl]-N-(6S)-2,4-dimethyl-5-oxo-7,8-dihydro-6H-pyrazolo[1,5-a][1,3]diazepin-6-yl-1,2,4-triazole-3-carboxamide], the Ki is reported as 110 nM.
In the case of `CN1C(=O)[C@@H](NC(=O)c2nc3n(n2)C(C2CCCCC2)CCC3)CCn2nccc21` (stereo partly drawn) [Example 381, 5-cyclohexyl-N—((S)-4-methyl-5-oxo-5,6,7,8-tetrahydro-4H-pyrazolo[1,5-a][1,3]diazepin-6-yl)-5,6,7,8-tetrahydro-[1,2,4]triazolo[1,5-a]pyridine-2-carboxamide], the Ki is reported as 282 nM.
Work on `CN1C(=O)[C@@H](NC(=O)c2nnc(Cc3ccccc3)[nH]2)CCn2nc3c(c21)CS(=O)(=O)C3` [Example 453, (S)-5-Benzyl-N-(1-methyl-9,9-dioxido-2-oxo-1,2,3,4,5,10-hexahydro-8H-thieno[3′,4′:3,4]pyrazolo[1,5-a][1,3]diazepin-3-yl)-4H-1,2,4-triazole-3-carboxamide] yielded a Ki of 301 nM.
`CN1C(=O)[C@@H](NC(=O)c2nc3n(n2)[C@@H](c2ccccc2)CC3)CCn2nccc21` (single isomer, unassigned) [Example 362] gave a Ki of 896 nM.
In the case of `CN1C(=O)[C@@H](NC(=O)c2ncn(Cc3ncccc3F)n2)CCn2nccc21` [Example 653, 1-[(3-fluoro-2-pyridyl)methyl]-N-(6S)-4-methyl-5-oxo-7,8-dihydro-6H-pyrazolo[1,5-a][1,3]diazepin-6-yl-1,2,4-triazole-3-carboxamide], the Ki is reported as 110 nM.
